The text below walks through data of patent US20060199214A1, “Incorporation of modified nucleotides by archaeon DNA polymerases and related methods” (priority 1999, published 2006).

Assay [1] deals with Thermo Sequenase™ DNA polymerase. Briefly: Titration assay of chain terminator incorporation by Thermo Sequenase. Format: biochemical. Conditions: FIG. 9. The procedure: Samples were then heated at 72° C. for 3 minutes and separated on a QuickPoint DNA sequencing gel (NOVEX, San Diego, Calif.) run at 1200 volts. The gel was fixed by soaking in 10% acetic acid/10% ethanol, dried, and polymerization products visualized by autoradiography.
In a related experiment dye-acyclo-CTP incorporation by the analogous […] variant was evaluated.
(§1) The 2X cocktail was split in half and 9° N™ (exo-)/A485L DNA polymerase or Thermo Sequenase™ was added to a final concentration of 0.04 U/μl. […] Reactions were thermal cycled as follows: • 94° C. 5 minutes • 25 cycles at: • 94° C. 30 seconds • 55° C. 30 seconds • 72° C. 30 seconds • 72° C. 7 minutes

For assay [2], the target named is human DNA polymerase alpha (Homo sapiens, UniProt P09884). Conditions: Reid, et al.; cited from earlier work.
In assay [3] the target is T1, Vent® (exo-)/A488L DNA polymerase (Thermococcus litoralis, UniProt P30317, A488L/D141A/DEL1082-1471/DEL495-1032/E143A).
T1 construct: made in house
Format: biochemical. The note with it: Vent (exo-)/A488L vs Vent (exo-); FIG. 6.

For assay [4], the target named is T2, 9° N™ (exo-)/A485L DNA polymerase (Thermococcus sp., UniProt Q56366, A485L/D141A/E143A).
T2 construct: made in house
The format is biochemical, Thermococcus sp. 9° N-7. The procedure:
as §1

For assay [5], the target named is herpes virus type 2 (HSV-2) DNA polymerase (Human herpesvirus 2, UniProt P89453). Conditions: Reid, et al.; cited from earlier work.
The target of assay [6] is human cytomegalovirus (HCMV) DNA polymerase (Human cytomegalovirus, UniProt P08546). Conditions: Reid, et al.; cited from earlier work.
Sequence of human cytomegalovirus (HCMV) DNA polymerase (P08546 whole entry): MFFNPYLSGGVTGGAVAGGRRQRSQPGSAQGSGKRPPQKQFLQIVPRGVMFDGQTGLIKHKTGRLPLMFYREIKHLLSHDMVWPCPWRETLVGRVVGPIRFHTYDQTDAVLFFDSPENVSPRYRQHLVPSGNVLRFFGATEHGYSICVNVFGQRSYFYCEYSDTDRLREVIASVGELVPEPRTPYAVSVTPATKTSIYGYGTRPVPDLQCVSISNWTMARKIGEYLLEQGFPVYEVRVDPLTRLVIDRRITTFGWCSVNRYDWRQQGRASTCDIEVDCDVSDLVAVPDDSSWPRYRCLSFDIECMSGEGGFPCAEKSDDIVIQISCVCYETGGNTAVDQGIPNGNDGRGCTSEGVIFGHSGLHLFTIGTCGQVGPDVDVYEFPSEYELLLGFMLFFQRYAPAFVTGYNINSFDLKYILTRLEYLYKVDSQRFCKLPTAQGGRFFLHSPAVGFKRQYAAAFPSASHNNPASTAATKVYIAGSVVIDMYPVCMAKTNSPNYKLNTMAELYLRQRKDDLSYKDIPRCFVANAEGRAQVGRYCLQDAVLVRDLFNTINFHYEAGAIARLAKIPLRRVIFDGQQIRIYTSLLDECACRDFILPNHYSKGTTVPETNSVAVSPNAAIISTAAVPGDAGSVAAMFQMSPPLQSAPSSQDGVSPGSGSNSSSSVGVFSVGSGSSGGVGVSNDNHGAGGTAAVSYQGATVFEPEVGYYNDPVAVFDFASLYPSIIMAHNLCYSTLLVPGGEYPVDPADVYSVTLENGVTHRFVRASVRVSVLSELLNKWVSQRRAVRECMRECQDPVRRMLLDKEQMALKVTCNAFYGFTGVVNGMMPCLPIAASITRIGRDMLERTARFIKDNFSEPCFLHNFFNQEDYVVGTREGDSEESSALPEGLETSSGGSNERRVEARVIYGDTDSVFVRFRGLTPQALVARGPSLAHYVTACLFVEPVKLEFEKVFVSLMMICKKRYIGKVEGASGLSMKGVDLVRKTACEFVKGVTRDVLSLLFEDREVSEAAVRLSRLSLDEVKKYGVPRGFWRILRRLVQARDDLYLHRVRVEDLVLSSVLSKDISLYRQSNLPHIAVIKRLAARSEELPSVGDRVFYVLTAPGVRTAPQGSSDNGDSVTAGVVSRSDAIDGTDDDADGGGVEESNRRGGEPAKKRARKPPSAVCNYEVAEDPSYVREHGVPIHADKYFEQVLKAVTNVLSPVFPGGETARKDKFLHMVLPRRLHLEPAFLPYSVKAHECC

T2 sequence (Q56366 whole entry D141A/E143A/A485L): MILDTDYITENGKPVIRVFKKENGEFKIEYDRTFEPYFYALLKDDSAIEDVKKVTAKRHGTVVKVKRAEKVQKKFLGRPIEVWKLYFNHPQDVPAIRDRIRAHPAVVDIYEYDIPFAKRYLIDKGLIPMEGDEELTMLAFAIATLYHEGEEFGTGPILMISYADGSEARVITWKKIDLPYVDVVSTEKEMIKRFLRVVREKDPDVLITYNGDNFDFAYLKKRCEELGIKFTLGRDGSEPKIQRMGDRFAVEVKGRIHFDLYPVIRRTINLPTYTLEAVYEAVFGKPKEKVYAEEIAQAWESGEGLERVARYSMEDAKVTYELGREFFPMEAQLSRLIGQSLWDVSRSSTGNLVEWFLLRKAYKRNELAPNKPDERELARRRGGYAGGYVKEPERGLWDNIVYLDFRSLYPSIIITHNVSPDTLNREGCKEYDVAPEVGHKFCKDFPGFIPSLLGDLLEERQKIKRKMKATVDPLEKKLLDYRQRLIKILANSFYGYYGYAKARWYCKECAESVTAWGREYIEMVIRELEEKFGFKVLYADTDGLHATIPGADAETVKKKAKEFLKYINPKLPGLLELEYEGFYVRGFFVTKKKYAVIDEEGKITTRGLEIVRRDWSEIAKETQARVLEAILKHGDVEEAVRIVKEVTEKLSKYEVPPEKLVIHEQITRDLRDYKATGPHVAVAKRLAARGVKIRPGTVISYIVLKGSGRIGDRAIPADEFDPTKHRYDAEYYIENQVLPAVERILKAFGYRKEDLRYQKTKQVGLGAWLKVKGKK
Sequence of herpes virus type 2 (HSV-2) DNA polymerase (P89453 whole entry): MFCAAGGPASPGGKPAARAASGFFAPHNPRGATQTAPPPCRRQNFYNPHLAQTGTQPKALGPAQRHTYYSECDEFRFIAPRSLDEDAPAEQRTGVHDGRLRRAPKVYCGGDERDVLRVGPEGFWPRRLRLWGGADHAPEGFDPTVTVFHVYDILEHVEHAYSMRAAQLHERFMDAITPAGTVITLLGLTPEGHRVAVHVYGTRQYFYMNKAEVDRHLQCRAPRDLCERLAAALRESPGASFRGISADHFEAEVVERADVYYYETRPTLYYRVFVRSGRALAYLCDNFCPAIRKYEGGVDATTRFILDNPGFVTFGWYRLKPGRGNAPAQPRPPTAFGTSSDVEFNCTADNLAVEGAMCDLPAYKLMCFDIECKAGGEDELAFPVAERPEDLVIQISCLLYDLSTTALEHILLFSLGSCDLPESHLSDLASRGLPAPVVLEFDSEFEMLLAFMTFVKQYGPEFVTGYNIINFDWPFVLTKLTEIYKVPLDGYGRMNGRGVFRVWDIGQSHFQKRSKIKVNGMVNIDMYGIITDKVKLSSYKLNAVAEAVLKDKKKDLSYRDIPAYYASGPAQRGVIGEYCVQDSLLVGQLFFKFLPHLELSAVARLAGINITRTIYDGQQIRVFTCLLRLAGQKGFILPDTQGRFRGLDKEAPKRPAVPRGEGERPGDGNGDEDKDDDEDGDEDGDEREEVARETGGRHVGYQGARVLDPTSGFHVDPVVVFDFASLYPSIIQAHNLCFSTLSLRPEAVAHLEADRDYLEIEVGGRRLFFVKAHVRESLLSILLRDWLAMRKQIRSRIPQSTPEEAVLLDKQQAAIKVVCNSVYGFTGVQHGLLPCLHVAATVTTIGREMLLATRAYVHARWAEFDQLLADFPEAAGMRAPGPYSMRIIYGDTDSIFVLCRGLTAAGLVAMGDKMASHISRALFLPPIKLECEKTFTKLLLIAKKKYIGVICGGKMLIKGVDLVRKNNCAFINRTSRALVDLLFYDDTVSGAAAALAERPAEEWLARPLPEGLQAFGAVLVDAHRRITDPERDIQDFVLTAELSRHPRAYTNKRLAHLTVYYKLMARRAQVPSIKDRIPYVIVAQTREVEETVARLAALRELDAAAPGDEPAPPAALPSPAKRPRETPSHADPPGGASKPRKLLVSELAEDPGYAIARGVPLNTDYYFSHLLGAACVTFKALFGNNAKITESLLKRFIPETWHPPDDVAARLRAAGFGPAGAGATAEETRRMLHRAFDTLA
T1 sequence (P30317 other isoform, or with tags, fused parts or gaps D141A/E143A/A488L/DEL495-1032/DEL1082-1471): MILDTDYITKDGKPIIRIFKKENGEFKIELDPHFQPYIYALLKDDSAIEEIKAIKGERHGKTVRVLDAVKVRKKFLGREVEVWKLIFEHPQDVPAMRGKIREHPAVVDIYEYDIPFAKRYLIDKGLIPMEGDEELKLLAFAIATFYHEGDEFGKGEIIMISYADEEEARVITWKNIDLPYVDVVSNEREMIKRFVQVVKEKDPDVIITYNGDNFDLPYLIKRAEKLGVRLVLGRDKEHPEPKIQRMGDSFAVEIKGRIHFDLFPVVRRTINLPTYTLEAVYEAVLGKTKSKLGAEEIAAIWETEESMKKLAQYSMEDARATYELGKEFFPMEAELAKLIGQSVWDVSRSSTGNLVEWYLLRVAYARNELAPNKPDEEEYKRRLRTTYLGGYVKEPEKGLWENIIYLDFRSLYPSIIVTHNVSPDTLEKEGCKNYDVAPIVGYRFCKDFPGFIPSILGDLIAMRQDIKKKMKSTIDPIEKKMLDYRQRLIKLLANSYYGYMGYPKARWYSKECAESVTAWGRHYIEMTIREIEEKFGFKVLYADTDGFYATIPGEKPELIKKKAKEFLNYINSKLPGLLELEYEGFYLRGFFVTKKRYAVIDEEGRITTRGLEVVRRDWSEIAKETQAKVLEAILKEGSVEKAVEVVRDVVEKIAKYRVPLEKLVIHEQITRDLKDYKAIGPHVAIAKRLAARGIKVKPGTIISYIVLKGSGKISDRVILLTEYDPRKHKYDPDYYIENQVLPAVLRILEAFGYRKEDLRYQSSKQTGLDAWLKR

On to `Nc1nc2c(ncn2[C@H]2CC[C@@H](COP(=O)(O)OP(=O)(O)OP(=O)(O)O)O2)c(=O)[nH]1` [ddGTP], for which, in assay [1], the “Preference for ddGTP over acyclo-GTP” value is given as ~27 fold. In assay [2], the “Preference for insertion, ddGTP versus acyclo-GTP” value is “strong preference”.
On to `Nc1ccn([C@H]2CC[C@@H](COP(=O)(O)OP(=O)(O)OP(=O)(O)O)O2)c(=O)n1` [ddCTP], for which the “Enhancement of incorporation, variant compared to parental enzyme” value in assay [3] is reported as “about 10 fold”; in assay [4] (9°N (exo-)/A485L vs 9°N (exo-), FIG. 6), “about 10 fold”.
Turning to `Nc1nc2c(ncn2COCCOP(=O)(O)OP(=O)(O)OP(=O)(O)O)c(=O)[nH]1` [acyclo-GTP], the “Preference for acyclo-GTP over ddGTP” value in assay [4] (9°N (exo-)/A485L, FIG. 9) was “approximately 9 fold”. Moreover, the “Preference for insertion, acyclo-GTP versus ddGTP” value in assay [5] and in assay [6] was “preference for insertion of acyclo-GTP over ddGTP” each time.
